One assay deals with Klebsiella aerogenes. The assay can be described thus: Antibacterial activity against Klebsiella aerogenes (SHV-1) 1976E by M07-A9 CLSI method. The format is functional.
The next assay relates to Pseudomonas aeruginosa. Kind of assay: Antibacterial activity against Pseudomonas aeruginosa 6065Y by M07-A9 CLSI method. The format is functional.
A further assay has as its system Proteus vulgaris. Kind of assay: Antibacterial activity against Proteus vulgaris 6059 by M07-A9 CLSI method. Type of assay: functional.
Another assay has as its system Klebsiella pneumoniae. Kind of assay: Antibacterial activity against Klebsiella pneumoniae 2011E by M07-A9 CLSI method. Type of assay: functional.
The test system of another assay is Salmonella typhimurium. Kind of assay: Antibacterial activity against Salmonella typhimurium ATCC 13311 by M07-A9 CLSI method. The format is functional, Salmonella enterica subsp. enterica serovar Typhimurium. As to conditions: Salmonella enterica.
The next assay relates to Escherichia coli. The assay can be described thus: Antibacterial activity against Escherichia coli ATCC 25922 by M07-A9 CLSI method. The format is functional.
The next assay relates to Bacillus licheniformis. The assay can be described thus: Antibacterial activity against Bacillus licheniformis EMR by M07-A9 CLSI method. Type of assay: functional.
For a further assay, the system named is Bacillus cereus. Kind of assay: Antibacterial activity against Bacillus cereus ATCC 27348 by M07-A9 CLSI method. Type of assay: functional.
The next assay relates to Bacillus subtilis. Kind of assay: Antibacterial activity against Bacillus subtilis ATCC 6633 by M07-A9 CLSI method. The format is functional.
Another assay has as its system Enterococcus faecalis. The assay can be described thus: Antibacterial activity against Enterococcus faecalis ATCC 29212 by M07-A9 CLSI method. The format is functional.
The test system of another assay is Kocuria rhizophila. The assay can be described thus: Antibacterial activity against Micrococcus luteus ATCC 9341 by M07-A9 CLSI method. The format is functional.
The subject of assay [1] is Staphylococcus epidermidis. The assay can be described thus: Antibacterial activity against Staphylococcus epidermidis 887E by M07-A9 CLSI method. Type of assay: functional.
In assay [2] the test system is Staphylococcus aureus. The assay can be described thus: Antibacterial activity against Staphylococcus aureus 241 by M07-A9 CLSI method. The format is functional.
The test system of assay [3] is Staphylococcus aureus. Kind of assay: Antibacterial activity against Staphylococcus aureus 77 by M07-A9 CLSI method. The format is functional.
Assay [4] has as its system Staphylococcus aureus. The assay can be described thus: Antibacterial activity against Staphylococcus aureus Giorgio by M07-A9 CLSI method. Type of assay: functional.
The subject of assay [5] is Staphylococcus aureus. Kind of assay: Antibacterial activity against Staphylococcus aureus ATCC 25923 by M07-A9 CLSI method. Type of assay: functional.
Assay [6] relates to Staphylococcus aureus. Kind of assay: Antibacterial activity against Staphylococcus aureus ATCC 6538P by M07-A9 CLSI method. The format is functional.

The record followed here is ChEMBL document CHEMBL2407054, “Synthesis and antimicrobial activity of imidazole and pyridine appended cholestane-based conjugates” (2013).

SMILES strings stand for the structures. In brackets after ≈: the same amount, converted by molar mass. Some results are limits rather than exact numbers.

Regarding `Cc1onc(-c2ccccc2)c1C(=O)N[C@@H]1C(=O)N2[C@@H]1SC(C)(C)[C@@H]2C(=O)O` [OXACILLIN], the MIC against Klebsiella aerogenes, with Pseudomonas aeruginosa, against Proteus vulgaris, with Klebsiella pneumoniae, in the assay on Salmonella typhimurium and with Escherichia coli was > 32 mg/L in each case. In addition, the MIC (in general, the smallest concentration in the dilution series that meets the test's criterion for growth inhibition) against Bacillus licheniformis is > 32 mg/L; in the assay on Bacillus cereus it was > 32 mg/L; with Bacillus subtilis, 16 mg/L (≈ 39.9 µM); against Enterococcus faecalis, 32 mg/L (≈ 79.7 µM); against Kocuria rhizophila it was 0.03 mg/L (≈ 0.0747 µM); in [1], > 32 mg/L. Further, the MIC against Staphylococcus aureus [2] was > 32 mg/L; with Staphylococcus aureus [3] it was 4 mg/L (≈ 9.96 µM); against Staphylococcus aureus [4], 0.5 mg/L (≈ 1.25 µM); with Staphylococcus aureus [5], 0.25 mg/L (≈ 0.623 µM); with Staphylococcus aureus [6] it was 0.25 mg/L (≈ 0.623 µM).
